Where two headings read alike, the source gives them in different places.
Legend:
A375 cells = assay: Flow cytometry cell cycle (G2/M) and apoptosis (sub-G1) analysis, A375; type: cell-based, human; conditions: Homo sapiens, A-375, read-out: SEC50
Protocol: Flow Cytometry Analysis: A375 and NCTC2544 adherent cells were trypsinized, mixed with floating cells, washed with PBS and permeabilised in 70% (vol/vol) ethanol/PBS solution at 4° C. for at least 24 hours. Jurkat, HeL023 and PBMC cells were centrifuged for 10 minutes at 1000×g. The cell pellet was then resuspended and permeabllised in 70% (vol/vol) ethanol/PBS solution at 4° C. for at least 24 hours. The cells were washed with PBS and the DNA was stained with a PBS solution, containing 20 μg/ml of propidium iodide and 100 μg/ml of RNAse, at room temperature for 30 minutes. Cells were analysed by FACScan (Becton-Dickinson) and the content of DNA was evaluated by the Cell-LISYS program (Becton-Dickinson). Cell distribution among cell cycle phases and apoptotic cells was evaluated as previously described (Secchiero et al., 2001). Briefly, the cell cycle distribution is shown as the percentage of cells containing 2n (G1 phase), 4n (G2 and M phases), 4n>x>2n. DNA amount (S phase) judged by propidium iodide staining. The apoptotic population is the percentage of cells with DNA content lower than 2n.
After 24 hours, cells were collected for flow cytometry analysis. PD 98059 was used at 20 uM as an inhibitor of MEK to prevent MEK-1 activation. […]
EC50 values were obtained by analysing G2/M accumulation dose response curve. ECMAX values were obtained by analysing sub-G1 accumulation dose response curve. Paclitaxel values have units of ng/ml.

[1] = test system: Human Lung Carcinoma SKMES; assay: MTT growth inhibitory assay, SKMES; type: cell-based; conditions: SKMES cells, A3 antagonist at 1 μg/ml
Protocol: (§1) Interpretation of the EF is dependent upon the concentrations of A3 receptor antagonist tested. For example, when using very low concentrations of A3 receptor antagonist, any EF above 1.0 is synergistic if the A3 receptor antagonist concentration is below the threshold of cell growth inhibition.
(§2) The cells are sub-cultured twice a week.
(§3) Vinblastine sulfate salt was obtained from Sigma Chemical Co., (V1377). Irinotecan was diluted with culture medium. All other agents were dissolved in 100% DMSO at appropriate concentrations. The DMSO stock solutions were diluted 100-fold with growth medium so that the final DMSO concentration was 1%.

P-gp = P-gp (Homo sapiens, UniProt P08183); type: cell-based; conditions: 10 μM; for P-gp mediated Rh123 efflux (FRES vs FMAX): 3 hours efflux
Sequence of P-gp (P08183 whole entry): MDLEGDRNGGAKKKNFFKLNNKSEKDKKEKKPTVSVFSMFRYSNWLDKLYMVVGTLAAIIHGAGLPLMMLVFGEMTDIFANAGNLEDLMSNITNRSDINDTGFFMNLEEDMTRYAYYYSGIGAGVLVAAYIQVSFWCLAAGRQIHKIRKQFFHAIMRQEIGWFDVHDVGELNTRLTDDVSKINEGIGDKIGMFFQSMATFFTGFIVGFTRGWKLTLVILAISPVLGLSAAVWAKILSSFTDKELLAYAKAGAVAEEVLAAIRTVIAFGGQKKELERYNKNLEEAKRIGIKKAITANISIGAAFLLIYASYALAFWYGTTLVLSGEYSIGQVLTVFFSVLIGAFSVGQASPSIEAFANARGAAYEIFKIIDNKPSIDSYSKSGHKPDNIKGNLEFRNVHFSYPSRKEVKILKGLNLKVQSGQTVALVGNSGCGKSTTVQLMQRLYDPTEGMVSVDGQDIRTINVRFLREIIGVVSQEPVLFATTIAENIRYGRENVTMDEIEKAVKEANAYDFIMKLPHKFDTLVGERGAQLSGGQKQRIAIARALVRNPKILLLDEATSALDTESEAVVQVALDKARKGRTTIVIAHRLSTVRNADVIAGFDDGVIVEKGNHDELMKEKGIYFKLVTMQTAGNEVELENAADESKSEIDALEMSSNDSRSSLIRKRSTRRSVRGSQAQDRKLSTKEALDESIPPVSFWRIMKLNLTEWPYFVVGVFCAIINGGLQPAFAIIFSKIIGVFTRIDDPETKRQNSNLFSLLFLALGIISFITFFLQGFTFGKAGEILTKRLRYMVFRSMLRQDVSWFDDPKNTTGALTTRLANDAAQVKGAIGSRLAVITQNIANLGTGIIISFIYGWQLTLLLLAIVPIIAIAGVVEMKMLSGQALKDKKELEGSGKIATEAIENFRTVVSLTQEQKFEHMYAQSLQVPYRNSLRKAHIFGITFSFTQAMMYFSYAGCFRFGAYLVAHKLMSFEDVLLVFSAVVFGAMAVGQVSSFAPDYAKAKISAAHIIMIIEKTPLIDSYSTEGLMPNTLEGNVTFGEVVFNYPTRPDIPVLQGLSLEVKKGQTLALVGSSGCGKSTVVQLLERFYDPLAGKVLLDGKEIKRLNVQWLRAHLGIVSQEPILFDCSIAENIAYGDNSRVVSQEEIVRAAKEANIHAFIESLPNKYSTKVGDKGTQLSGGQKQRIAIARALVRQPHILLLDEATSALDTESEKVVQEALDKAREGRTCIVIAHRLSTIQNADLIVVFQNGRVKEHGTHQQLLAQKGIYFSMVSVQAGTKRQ
Protocol: Rhodamine 123 Efflux Assay: 5×10^5 cells from each subline were loaded with 50 ng/ml of rhodamine 123 for 30 minutes at 37 C in medium. The cells were washed and resuspended in dye-staining agent free medium for 3 hours at 37 C. to allow rhodamine 123 efflux. The cells were then washed twice and the fluorescence of intracellular rhodamine 123 were analysed with Flow cytometer (residual fluorescence FRES). The fluorescence was compared with loaded cells maintained at 4 C. to prevent drug export (maximal fluorescence FMAX). […] Cells from each subline that were not being exposed to rhodamine 123 were used as negative controls.
Rhodamine 123 (Rh123) retention, a P-gp functional assay, was studied in all cell lines. This assay was performed by incubating cells with Rh123 and determining Rh123 accumulation by measuring its fluorescence. The maximum load of Rh123 (FMAX) was quantified at the end of treatment harvesting the cells and storing them at 4° C. to prevent any active Rh123 efflux. The P-gp drug efflux was allowed incubating Rh123-loaded cells in fresh new medium Rh123-free for 3 hours at 37° C. After this incubation, residual fluorescence (FRES) was measured and compared to FMAX.

HIF-1α = HIF-1α protein immunoblot in hypoxic cells; type: cell-based, human; conditions: A375
Protocol: Cell culture and hypoxia treatment: Cells were maintained in DMEM (A375), EMEM (NCTC 2544) or RPMI 1640 (U87MG, U2OS) medium containing 10% fetal calf serum, penicillin (100 U/ml), streptomycin (100 ug/ml), and L-glutamine (2 mM) at 37° C. in 5% CO2/95% air. Cells were passaged two or three times weekly at a ratio between 1:5 and 1:10. Hypoxic exposure was in BBL™ GasPak pouch™ System (Becton Dickinson) that reduce oxygen concentration of less than 2% within 2 hours of incubation at 35° C.
Cells were harvested and washed with ice-cold PBS containing 1 mM sodium orthovanadate, AEBSF 104 mM, aprotinin 0.08 mM, leupeptin 2 mM, bestatin 4 mM, pepstatin A 1.5 mM, E-64 1.4 mM. Cells were then lysed in Triton lysis buffer. The protein concentration was determined using BCA protein assay kit (Pierce). […] The gel was then electroblotted onto a nitrocellulose membrane. Membranes were blocked with 5% nonfat dry milk in PBS containing 0.1% Tween-20 and incubated with antibodies against HIF-1α (1:250 dilution) and HIF-1β (1:1000 dilution) in 5% nonfat dry milk in PBS/0.1% Tween-20 overnight at 4° C. Aliquots of total protein sample (50 ug) were analyzed using antibodies specific for phosphorylated (Thr183/Tyr185) or total p44/p42 MAPK (1:5000 dilution), phosphorylated (Thr180/Tyr182) or total p38 MAPK (1:1000 dilution) and for A3 receptor (1 µg/ml dilution). Filters were washed and incubated for 1 hour at room temperature with peroxidase-conjugated secondary antibodies against mouse and rabbit IgG (1:2000 dilution). […] The membranes were then stripped and reprobed with tubulin (1:250) to ensure equal protein loading.
U0126 was used at 10 and 30 uM as inhibitor of MEK-1 and MEK-2 to prevent p44 and p42 MAPK activation. SB202190 was used at 1 and 10 uM as inhibitor of p38 MAPK.
Densitometry analysis: The intensity of each band in immunoblot assay was quantified using molecular analyst/PC densitometry software (Bio-Rad). […] The data were presented as the mean±S.E., and analyzed by the Student's test.

[2] = test system: Human Pancreatic Cancer Panc-1; assay: MTT growth inhibitory assay, Panc-1; type: cell-based; conditions: Panc-1 cells, A3 antagonist at 1 μg/ml
Protocol: as §1, §2, §3

CCCn1cc2c(nc(NC(=O)Nc3ccc(OC)cc3)n3nc(-c4ccco4)nc23)n1 [MRE3008F20, 5-[[(4-Methoxyphenyl)amino]carbonyl]amino-8-propyl-2-(2-furyl)-pyrazolo[4,3-e]1,2,4-triazolo[1,5-c]pyrimidine]
EC50 (A375 cells): 550 ± 60 nM
Enhancement Factor ([1]; enhancement of docetaxel IC50): 3.6
Enhancement Factor ([1]; enhancement of irinotecan HCL IC50): 2.1
Enhancement Factor ([1]; enhancement of paclitaxel IC50): 4.1
Enhancement Factor ([1]; enhancement of vinblastine IC50): 1.2
P-gp mediated Rh123 efflux (FRES vs FMAX) (P-gp; A375 cells): completely blockade of P-gp mediated Rh123 transport
% of Rh123 Negative Cells (cells expressing P-gp activity) (P-gp; HeL023 cells): 0.5 ± 0.3%
P-gp mediated Rh123 efflux (FRES vs FMAX) (P-gp; HeL023 cells): near total P-gp inhibition
effect on adenosine-induced HIF-1α protein expression (HIF-1α; hypoxia 4 hours, adenosine 100 μM, antagonist 100 nM): abrogated
effect on Cl-IB-MECA-induced HIF-1α modulation (HIF-1α; hypoxia, antagonist 10 and 100 nM, Cl-IB-MECA 10 and 100 nM): able to abrogate the effect of Cl-IB-MECA
IC50 (HIF-1α; Homo sapiens, A-375, read-out: IC50, inhibition of HIF-1α protein increase induced by 10 nM Cl-IB-MECA, hypoxia 4 hours, 0.3-30 nM): 0.9 ± 0.08 nM
Enhancement Factor ([2]; enhancement of docetaxel IC50): 1.8
Enhancement Factor ([2]; enhancement of paclitaxel IC50): 1.9
